Data taken from patent publication US6750245B2, “C7 carbamate substituted taxanes” (FSU Research Foundation, Inc., priority 2000, dated 2004).

Test system: HCT116
Assay: In vitro cytotoxicity measured by the cell colony formation assay
Format: cell-based
Conditions: HCT116 cells; drug concentration producing 50% inhibition of colony formation; incubated with drugs 72 h at 37° C.; colonies counted after 7 days; read-out: IN VITRO ID 50 (nm) HCT116
Protocol: In Vitro Cytotoxicity Measured by the Cell Colony Formation Assay
Four hundred cells (HCT116) were plated in 60 mm Petri dishes containing 2.7 mL of medium (modified McCoy's 5a medium containing 10% fetal bovine serum and 100 units/mL penicillin and 100 µg/mL streptomycin). The cells were incubated in a CO2 incubator at 37° C. for 5 h for attachment to the bottom of Petri dishes. The compounds identified in Example 2 were made up fresh in medium at ten times the final concentration, and then 0.3 mL of this stock solution was added to the 2.7 mL of medium in the dish. The cells were then incubated with drugs for 72 h at 37° C. At the end of incubation the drug-containing media were decanted, the dishes were rinsed with 4 mL of Hank's Balance Salt Solution (HBSS), 5 mL of fresh medium was added, and the dishes were returned to the incubator for colony formation. The cell colonies were counted using a colony counter after incubation for 7 days.

| Structure (SMILES) | IC50 [nM] |
| --- | --- |
| CCCNC(=O)O[C@H]1C[C@H]2OC[C@@]2(OC(C)=O)C2[C@H](OC(=O)c3ccccc3)[C@]3(O)C[C@H](OC(=O)[C@H](O)[C@@H](NC(=O)OC(C)(C)C)c4ccco4)C(C)=C([C@@H](O)C(=O)[C@@]21C)C3(C)C (some centres unmarked) [Compound 5665] | > 50 |
| CC(=O)O[C@@]12CO[C@@H]1C[C@H](OC(=O)NC1CCCCC1)[C@@]1(C)C(=O)[C@H](O)C3=C(C)[C@@H](OC(=O)[C@H](O)[C@@H](NC(=O)OC(C)(C)C)c4ccco4)C[C@@](O)([C@@H](OC(=O)c4ccccc4)C12)C3(C)C (some centres unmarked) [Compound 5373] | < 10 |
| CCNC(=O)O[C@H]1C[C@H]2OC[C@@]2(OC(C)=O)C2[C@H](OC(=O)c3ccccc3)[C@]3(O)C[C@H](OC(=O)[C@H](O)[C@@H](NC(=O)C=C(C)C)c4ccco4)C(C)=C([C@@H](O)C(=O)[C@@]21C)C3(C)C (some centres unmarked) [Compound 5588] | < 1 |
| CCC(C)(C)OC(=O)N[C@@H](c1ccco1)[C@@H](O)C(=O)O[C@H]1C[C@@]2(O)[C@@H](OC(=O)c3ccccc3)C3[C@](C)(C(=O)[C@H](O)C(=C1C)C2(C)C)[C@@H](OC(=O)Nc1ccc(F)c(F)c1)C[C@H]1OC[C@@]31OC(C)=O (some centres unmarked) [Compound 6404] | < 10 |
| C/C=C/C(=O)N[C@@H](c1ccco1)[C@@H](O)C(=O)O[C@H]1C[C@@]2(O)[C@@H](OC(=O)c3ccccc3)C3[C@](C)(C(=O)[C@H](O)C(=C1C)C2(C)C)[C@@H](OC(=O)NC1CCCCC1)C[C@H]1OC[C@@]31OC(C)=O (some centres unmarked) [Compound 5895] | < 1 |
| CC(=O)O[C@@]12CO[C@@H]1C[C@H](OC(=O)Nc1ccc(F)c(F)c1)[C@@]1(C)C(=O)[C@H](O)C3=C(C)[C@@H](OC(=O)[C@H](O)[C@@H](NC(=O)OC(C)(C)C)c4ccco4)C[C@@](O)([C@@H](OC(=O)c4ccccc4)C12)C3(C)C (some centres unmarked) [Compound 5415] | < 1 |
| CC(=O)O[C@@]12CO[C@@H]1C[C@H](OC(=O)Nc1ccc(F)c(F)c1)[C@@]1(C)C(=O)[C@H](O)C3=C(C)[C@@H](OC(=O)[C@H](O)[C@@H](NC(=O)C=C(C)C)c4ccco4)C[C@@](O)([C@@H](OC(=O)c4ccccc4)C12)C3(C)C (some centres unmarked) [Compound 5522] | < 1 |
| CC=CC(=O)NC(c1ccco1)C(O)C(=O)OC1CC2(O)C(OC(=O)c3ccccc3)C3C4(OC(C)=O)COC4CC(OC(=O)Nc4ccc(F)c(F)c4)C3(C)C(=O)C(O)C(=C1C)C2(C)C (centres unmarked) [Compound 5800] | < 10 |
| CCC(C)(C)OC(=O)N[C@@H](c1ccco1)[C@@H](O)C(=O)O[C@H]1C[C@@]2(O)[C@@H](OC(=O)c3ccccc3)C3[C@](C)(C(=O)[C@H](O)C(=C1C)C2(C)C)[C@@H](OC(=O)Nc1ccccc1)C[C@H]1OC[C@@]31OC(C)=O (some centres unmarked) [Compound 6399] | < 10 |
| CCNC(=O)O[C@H]1C[C@H]2OC[C@@]2(OC(C)=O)C2[C@H](OC(=O)c3ccccc3)[C@]3(O)C[C@H](OC(=O)[C@H](O)[C@@H](NC(=O)OC(C)(C)C)c4ccco4)C(C)=C([C@@H](O)C(=O)[C@@]21C)C3(C)C (some centres unmarked) [Compound 5393] | < 1 |
| CC(=O)O[C@@]12CO[C@@H]1C[C@H](OC(=O)NC(C)(C)C)[C@@]1(C)C(=O)[C@H](O)C3=C(C)[C@@H](OC(=O)[C@H](O)[C@@H](NC(=O)OC(C)(C)C)c4ccco4)C[C@@](O)([C@@H](OC(=O)c4ccccc4)C12)C3(C)C (some centres unmarked) [Compound 5454] | < 10 |
| C/C=C/C(=O)N[C@@H](c1ccco1)[C@@H](O)C(=O)O[C@H]1C[C@@]2(O)[C@@H](OC(=O)c3ccccc3)C3[C@](C)(C(=O)[C@H](O)C(=C1C)C2(C)C)[C@@H](OC(=O)Nc1ccccc1)C[C@H]1OC[C@@]31OC(C)=O (some centres unmarked) [Compound 5757] | < 10 |
| CC(=O)O[C@@]12CO[C@@H]1C[C@H](OC(=O)Nc1ccccc1)[C@@]1(C)C(=O)[C@H](O)C3=C(C)[C@@H](OC(=O)[C@H](O)[C@@H](NC(=O)C=C(C)C)c4ccco4)C[C@@](O)([C@@H](OC(=O)c4ccccc4)C12)C3(C)C (some centres unmarked) [Compound 5535, N-Debenzoyl-N-isobutenyl-3′-desphenyl-3′-(2-furyl)-7-phenylcarbamoyl taxol] | < 1 |
| C/C=C/C(=O)N[C@@H](c1ccco1)[C@@H](O)C(=O)O[C@H]1C[C@@]2(O)[C@@H](OC(=O)c3ccccc3)C3[C@](C)(C(=O)[C@H](O)C(=C1C)C2(C)C)[C@@H](OC(=O)NCC)C[C@H]1OC[C@@]31OC(C)=O (some centres unmarked) [Compound 5822] | < 10 |
